For 25 molecules, GI50 results are on record in ChEMBL document CHEMBL1148751, “Optimization of the indenone ring of indenoisoquinoline topoisomerase I inhibitors” (2007).

As usually defined, the GI50 is the concentration that inhibits growth by half. Read a low GI50 as greater sensitivity of the cells.

Holding throughout (assay type): functional
Experiment [1] relates to MDA-MB-435. Nature of the experiment: Cytotoxicity against human MDA-MB-435 cells.
In experiment [2] the test system is DU-145. Nature of the experiment: Cytotoxicity against human DU145 cells.
The test system of experiment [3] is OVCAR-3. Nature of the experiment: Cytotoxicity against human OVCAR-3 cells.
For experiment [4], the system named is HOP-62. Nature of the experiment: Cytotoxicity against human HOP62 cells.
Experiment [5] deals with SF-539. Nature of the experiment: Cytotoxicity against human SF539 cells.
The subject of experiment [6] is SN12C. Nature of the experiment: Cytotoxicity against human SN12C cells.
Experiment [7] deals with UACC-62. Kind of experiment: Cytotoxicity against human UACC62 cells.
Experiment [8] deals with HCT-116. Nature of the experiment: Cytotoxicity against human HCT116 cells.

Regarding `COc1cc2c3c(n(CCCCl)c(=O)c2cc1OC)-c1ccccc1C3=O`, the GI50 in experiment [1] was greater than 100 µM; in experiment [2], greater than 100 µM; in experiment [3], 10.7 µM; in experiment [4] it was 4.47 µM; in experiment [5], 14.1 µM; in experiment [6], greater than 100 µM. Besides, the GI50 in experiment [7] stood at 12.3 µM; in experiment [8] it was 2.46 µM.
For `COc1cc2c3c(n(CCCCl)c(=O)c2cc1OC)-c1ccc(C#N)cc1C3=O`, the GI50 in experiment [1] was greater than 100 µM; in experiment [2], 10.7 µM; in experiment [3], 12.9 µM; in experiment [4], 14.8 µM; in experiment [5] it was 7.24 µM; in experiment [6], 22.9 µM. Also, the GI50 in experiment [7] came out at 6.76 µM; in experiment [8], 15.1 µM.
For the molecule `[N-]=[N+]=NCCCn1c2c(c3ccc([N+](=O)[O-])cc3c1=O)C(=O)c1cc(Br)ccc1-2`, the GI50 in experiment [1] was greater than 100 µM; in experiment [2], 14.8 µM; in experiment [3], greater than 100 µM; in experiment [4], 56.2 µM; in experiment [5], greater than 100 µM; in experiment [6] it was greater than 100 µM. Moreover, the figures for the GI50 in experiment [7] and in experiment [8] were greater than 100 µM and 3.02 µM, respectively.
As for `[N-]=[N+]=NCCCn1c2c(c3ccc([N+](=O)[O-])cc3c1=O)C(=O)c1cc(I)ccc1-2`, the GI50 came out at 34.7 µM in experiment [1]; 1.78 µM in experiment [2]; 18.2 µM in experiment [3]; 1.82 µM in experiment [4]; 2.24 µM in experiment [5]; 3.89 µM in experiment [6]. Further, the GI50 amounted to 3.31 µM in experiment [7] and 2.14 µM in experiment [8].
Take `N#Cc1ccc2c(c1)C(=O)c1c-2n(CCCN=[N+]=[N-])c(=O)c2cc([N+](=O)[O-])ccc12`: the concentration for 50% growth inhibition (GI50) was greater than 50.1 µM in experiment [1]; 7.08 µM in experiment [2]; greater than 50.1 µM in experiment [3]; 15.1 µM in experiment [4]; greater than 50.1 µM in experiment [5]; 46.8 µM in experiment [6]. Moreover, the GI50 is 3.63 µM in experiment [7] and 3.89 µM in experiment [8].
Regarding `COc1cc2c3c(n(CCCBr)c(=O)c2cc1OC)-c1ccc(NC(C)=O)cc1C3=O`, the GI50 in experiment [1] was found to be 13.8 µM; in experiment [2], 4.68 µM; in experiment [3] it was 4.36 µM; in experiment [4], 1.29 µM; in experiment [5], 3.8 µM; in experiment [6] it was 13.8 µM. Besides, the 50% growth inhibitory concentration (GI50) in experiment [7] was 2.09 µM; in experiment [8], 2.57 µM.
For the molecule `CCc1ccc2c(c1)C(=O)c1c-2n(CCCN)c(=O)c2cc([N+](=O)[O-])ccc12`, the GI50 in experiment [1] stood at 1.55 µM; in experiment [2], 0.776 µM; in experiment [3] it was 1.58 µM; in experiment [4], 1.38 µM; in experiment [5], 1.58 µM; in experiment [6] it was 1.48 µM. In addition, the GI50 came to 1.48 µM in experiment [7] and 0.575 µM in experiment [8].
Consider `NCCCn1c2c(c3ccc([N+](=O)[O-])cc3c1=O)C(=O)c1cc(-c3ccccc3)ccc1-2`, for which the concentration for 50% growth inhibition (GI50) in experiment [1] was 0.468 µM; in experiment [2], 0.2 µM; in experiment [3], 1.82 µM; in experiment [4], 0.186 µM; in experiment [5], 1.62 µM; in experiment [6], 0.437 µM. Also, the GI50 worked out at 1.51 µM in experiment [7] and 0.178 µM in experiment [8].
In the case of `COc1ccc2c(c1)C(=O)c1c-2n(CCCCl)c(=O)c2cc(OC)c(OC)cc12`, the GI50 was 37.2 µM in experiment [1]; 4.07 µM in experiment [2]; 70.8 µM in experiment [3]; 4.07 µM in experiment [4]; 6.76 µM in experiment [5]; 5.5 µM in experiment [6]. Besides, the GI50 in experiment [7] was 3.02 µM; in experiment [8], 8.32 µM.
For the molecule `NCCCn1c2c(c3ccc([N+](=O)[O-])cc3c1=O)C(=O)c1cc(I)ccc1-2`, the GI50 in experiment [1] was 0.224 µM; in experiment [2], less than 0.01 µM; in experiment [3] it was 1.2 µM; in experiment [4], 0.021 µM; in experiment [5], 0.044 µM; in experiment [6], less than 0.01 µM. The GI50 in experiment [7] and in experiment [8] was less than 0.01 µM each time.
Regarding `NCCCn1c2c(c3ccc([N+](=O)[O-])cc3c1=O)C(=O)c1cc(F)ccc1-2`, the GI50 is 0.081 µM in experiment [1]; less than 0.01 µM in experiment [2]; 0.052 µM in experiment [3]; less than 0.01 µM in experiment [4]; 0.028 µM in experiment [5]; 0.034 µM in experiment [6]. Besides, the concentration for 50% growth inhibition (GI50) in experiment [7] and in experiment [8] was less than 0.01 µM in each case.
As to `CSc1ccc2c(c1)C(=O)c1c-2n(CCCN)c(=O)c2cc([N+](=O)[O-])ccc12`, the GI50 in experiment [1] was 0.204 µM; in experiment [2] it was less than 0.01 µM; in experiment [3] it was 0.17 µM; in experiment [4] it was less than 0.01 µM; in experiment [5], less than 0.01 µM; in experiment [6] it was 0.162 µM. Further, the figures for the GI50 in experiment [7] and in experiment [8] were less than 0.01 µM and 0.023 µM, respectively.
Turning to `Cc1ccc(S(=O)(=O)Oc2ccc3c(c2)C(=O)c2c-3n(CCCBr)c(=O)c3cc([N+](=O)[O-])ccc23)cc1`, the GI50 in experiment [1] is greater than 100 µM; in experiment [2], 58.9 µM; in experiment [3], 81.3 µM; in experiment [4], 7.59 µM; in experiment [5], 50.1 µM; in experiment [6] it was greater than 100 µM. Moreover, the figures for the GI50 in experiment [7] and in experiment [8] were 23.4 µM and greater than 100 µM, respectively.
As to `CS(=O)(=O)c1ccc2c(c1)C(=O)c1c-2n(CCCBr)c(=O)c2cc([N+](=O)[O-])ccc12`, the GI50 in experiment [1] was determined as 83.2 µM; in experiment [2] it was 6.31 µM; in experiment [3], 28.8 µM; in experiment [4] it was 8.13 µM; in experiment [5] it was 24 µM; in experiment [6] it was 6.92 µM. For the same molecule, the GI50 turned out to be 4.27 µM in experiment [7] and 7.41 µM in experiment [8].
Turning to `CCOc1ccc2c(c1)C(=O)c1c-2n(CCCN=[N+]=[N-])c(=O)c2cc([N+](=O)[O-])ccc12`, the GI50 in experiment [1] came out at 39.8 µM; in experiment [2], 3.89 µM; in experiment [3], 20 µM; in experiment [4], 3.02 µM; in experiment [5], 3.89 µM; in experiment [6] it was 5.25 µM. Besides, the results for the GI50 in experiment [7] and in experiment [8] were 2.88 µM and 1.82 µM, respectively.
`Cc1ccc2c(c1)C(=O)c1c-2n(CCCN=[N+]=[N-])c(=O)c2cc([N+](=O)[O-])ccc12`: the GI50 in experiment [1] is greater than 100 µM; in experiment [2] it was greater than 100 µM; in experiment [3], greater than 100 µM; in experiment [4], 72.4 µM; in experiment [5] it was greater than 100 µM; in experiment [6], 58.9 µM. For the same molecule, the GI50 in experiment [7] came out at 30.2 µM; in experiment [8], 20.4 µM.
Take `CSc1ccc2c(c1)C(=O)c1c-2n(CCCN=[N+]=[N-])c(=O)c2cc([N+](=O)[O-])ccc12`: the GI50 in experiment [1] turned out to be 6.03 µM; in experiment [2] it was 1.15 µM; in experiment [3], 3.89 µM; in experiment [4], 0.603 µM; in experiment [5], 0.891 µM; in experiment [6], 1.05 µM. The values for the GI50 in experiment [7] and in experiment [8] were 0.708 µM and 0.776 µM, respectively.
In the case of `[N-]=[N+]=NCCCn1c2c(c3ccc([N+](=O)[O-])cc3c1=O)C(=O)c1cc(-c3ccccc3)ccc1-2`, the GI50 in experiment [1], in experiment [2], in experiment [3], in experiment [4], in experiment [5] and in experiment [6] was greater than 100 µM each time. In addition, the GI50 in experiment [7] and in experiment [8] was greater than 100 µM in each case.
With `NCCCn1c2c(c3ccc([N+](=O)[O-])cc3c1=O)C(=O)c1cc(Br)ccc1-2`, the concentration for 50% growth inhibition (GI50) in experiment [1] was 0.162 µM; in experiment [2], less than 0.01 µM; in experiment [3], 0.295 µM; in experiment [4], 0.033 µM; in experiment [5] it was 0.011 µM; in experiment [6], less than 0.01 µM. For the same molecule, the results for the 50% growth inhibitory concentration (GI50) in experiment [7] and in experiment [8] were less than 0.01 µM and 0.048 µM, respectively.
With `COc1cc2c3c(n(CCCN=[N+]=[N-])c(=O)c2cc1OC)-c1ccc(NC(C)=O)cc1C3=O`, the GI50 in experiment [1], in experiment [2], in experiment [3], in experiment [4], in experiment [5] and in experiment [6] was 50.1 µM in each case. For the same molecule, the GI50 in experiment [7] and in experiment [8] was 50.1 µM in each case.
On to `[N-]=[N+]=NCCCn1c2c(c3ccc([N+](=O)[O-])cc3c1=O)C(=O)c1cc(F)ccc1-2`, for which the 50% growth inhibitory concentration (GI50) came out at 2.88 µM in experiment [1]; 0.437 µM in experiment [2]; 3.47 µM in experiment [3]; 0.251 µM in experiment [4]; 0.457 µM in experiment [5]; 0.302 µM in experiment [6]. The GI50 in experiment [7] was found to be 0.38 µM; in experiment [8], 0.309 µM.
Consider `CCOc1ccc2c(c1)C(=O)c1c-2n(CCCN)c(=O)c2cc([N+](=O)[O-])ccc12`, for which the GI50 in experiment [1] stood at 0.2 µM; in experiment [2], 0.011 µM; in experiment [3], 0.457 µM; in experiment [4] it was 0.012 µM; in experiment [5], 0.035 µM; in experiment [6], 0.055 µM. For the same molecule, the GI50 in experiment [7] was found to be 0.055 µM; in experiment [8], 0.174 µM.
Consider `COc1cc2c3c(n(CCCBr)c(=O)c2cc1OC)-c1ccc(F)cc1C3=O`, for which the GI50 in experiment [1] turned out to be 43.7 µM; in experiment [2], 4.36 µM; in experiment [3] it was 24.5 µM; in experiment [4], 4.17 µM; in experiment [5], 3.55 µM; in experiment [6], 15.5 µM. Moreover, the values for the GI50 in experiment [7] and in experiment [8] were 3.89 µM and 5.75 µM, respectively.
As to `CCc1ccc2c(c1)C(=O)c1c-2n(CCCN=[N+]=[N-])c(=O)c2cc([N+](=O)[O-])ccc12`, the GI50 in experiment [1], in experiment [2], in experiment [3], in experiment [4], in experiment [5] and in experiment [6] was greater than 50.1 µM each time. Moreover, the GI50 in experiment [7] and in experiment [8] was greater than 50.1 µM each time.
In the case of `COC(=O)c1ccc2c(c1)C(=O)c1c-2n(CCCN=[N+]=[N-])c(=O)c2cc([N+](=O)[O-])ccc12`, the GI50 was greater than 100 µM in experiment [1]; 70.8 µM in experiment [2]; greater than 100 µM in experiment [3]; 25.7 µM in experiment [4]; 53.7 µM in experiment [5]; greater than 100 µM in experiment [6]. Moreover, the values for the 50% growth inhibitory concentration (GI50) in experiment [7] and in experiment [8] were 37.1 µM and 47.9 µM, respectively.
